According to PMC8762706, “Design of Coibamide A Mimetics with Improved Cellular Bioactivity” (ACS Medicinal Chemistry Letters, 2021):
Like-named read-outs stand apart in the source and are kept apart here. Where a SMILES comes first, the peptide text is derived from it. Bridges are numbered along the chain shown (N, C = ends). [ ]: non-standard residue; d: D form. The star is where a group is joined. Bip = N[C@@H](Cc1ccc(-c2ccccc2)cc1)C(=O)O; 1Nal = N[C@@H](Cc1cccc2ccccc12)C(=O)O; 2Nal = N[C@@H](Cc1ccc2ccccc2c1)C(=O)O; NMe2Val = CC(C)[C@@H](C(=O)*)N(C)C; NMeLys(Me) = CNCCCC[C@H](NC)C(=O)O; NMeF = CN[C@@H](Cc1ccccc1)C(=O)O; NMeI = CC[C@H](C)[C@H](NC)C(=O)O; NMeT = CN[C@H](C(=O)O)[C@@H](C)O; Tic = O=C(O)[C@@H]1Cc2ccccc2CN1; NMeL = CN[C@@H](CC(C)C)C(=O)O; dHiv = CC(C)[C@@H](O)C(=O)O; NMeS = CN[C@@H](CO)C(=O)O; NMeA = CN[C@@H](C)C(=O)O; dNMeA = CN[C@H](C)C(=O)O; CF3 = FC(F)(F)*; tBu = CC(C)(C)*

Test system: A549 cells
Test: Growth inhibition assay (MTS) in A549 cells
Format: cell-based
Details: for cytotoxicity / bioactivity in words: MTS assay; for fold more potent cytotoxicity than 1 (coibamide A): ratio of IC50 values to 1
Experimental: Growth Inhibition AssayS3
A549 cells were cultured in Dulbecco’s modified Eagle’s medium (DMEM; Sigma) supplemented with 10% (v/v) fetal bovine serum at 37 °C in a 5% CO2-incubator. Growth inhibition assays using A549 cells were performed in 96-well plates (BD Falcon). A549 cells were seeded at 1000 cells/well in 90 μL of culture media, respectively, and were cultured for 24 h. Chemical compounds in DMSO were diluted 50-fold with the culture medium in advance. 30 μL of the chemical diluents were added.
The final volume of DMSO in the medium was equal to 0.5% (v/v). The cells under chemical treatment were incubated for a further 72 h. The wells in the plates were washed twice with the cultured medium without phenol-red. After 1-hour incubation with 100 μL of the medium, the cell culture in each well was supplemented with 20 μL of the MTS reagent (Promega), followed by incubation for additional 40 min. Absorbance at 490 nm of each well was measured using a Wallac 1420 ARVO SX multilabel counter (Perkin Elmer). Three experiments were performed per condition and the averages of inhibition rates in each condition were evaluated to determine IC50 values using the GraphPad Prism software.

[1] = read-out: IC50 (concentration for 50% growth inhibition of A549 cells), MTS assay, 72 h treatment, 0.5% DMSO, absorbance 490 nm, n = 3
[2] = read-out: IC50 (concentration for 50% growth inhibition of A549 cells), MTS assay, 72 h treatment, n = 3

SMILES | IC50 [1] | also measured
CC[C@H](C)[C@H]1C(=O)N[C@@H](C)C(=O)N(C)[C@@H](CC(C)C)C(=O)N[C@@H](Cc2ccc(OC(C)(C)C)cc2)C(=O)N(C)CCCC[C@H](N(C)C(=O)[C@H](CC(C)C)N(C)C(=O)[C@H](C)N(C)C(=O)[C@H](OC(=O)[C@H](C(C)C)N(C)C)C(C)C)C(=O)N(C)[C@@H](C)C(=O)N1C [10h] (NMe2Val-[dHiv][NMeA][NMeL][NMeLys(Me)][NMeA][NMeI]A[NMeL]Y(tBu); lactam 4-C) | 1000 ± 100 nM | –
CC[C@H](C)[C@H]1C(=O)N[C@@H](C)C(=O)N(C)[C@@H](CC(C)C)C(=O)N[C@@H](Cc2ccc(OC(F)(F)F)cc2)C(=O)N(C)CCCC[C@H](N(C)C(=O)[C@H](CC(C)C)N(C)C(=O)[C@H](C)N(C)C(=O)[C@H](OC(=O)[C@H](C(C)C)N(C)C)C(C)C)C(=O)N(C)[C@@H](C)C(=O)N1C [10i] (NMe2Val-[dHiv][NMeA][NMeL][NMeLys(Me)][NMeA][NMeI]A[NMeL]Y(CF3); lactam 4-C) | 320 ± 30 nM | –
CC[C@H](C)[C@H]1C(=O)N[C@@H](C)C(=O)N(C)[C@@H](CC(C)C)C(=O)N(C)[C@@H](Cc2ccccc2)C(=O)N(C)CCCC[C@H](N(C)C(=O)[C@H](CC(C)C)N(C)C(=O)[C@H](C)N(C)C(=O)[C@H](OC(=O)[C@H](C(C)C)N(C)C)C(C)C)C(=O)N(C)[C@@H](C)C(=O)N1C [10n] (NMe2Val-[dHiv][NMeA][NMeL][NMeLys(Me)][NMeA][NMeI]A[NMeL][NMeF]; lactam 4-C) | > 10000 nM | cytotoxicity / bioactivity in words: loss of bioactivity
CC[C@H](C)[C@H]1C(=O)N[C@@H](C)C(=O)N(C)[C@@H](CC(C)C)C(=O)N2Cc3ccccc3C[C@H]2C(=O)N(C)CCCC[C@H](N(C)C(=O)[C@H](CC(C)C)N(C)C(=O)[C@H](C)N(C)C(=O)[C@H](OC(=O)[C@H](C(C)C)N(C)C)C(C)C)C(=O)N(C)[C@@H](C)C(=O)N1C [10o] (NMe2Val-[dHiv][NMeA][NMeL][NMeLys(Me)][NMeA][NMeI]A[NMeL][Tic]; lactam 4-C) | > 10000 nM | cytotoxicity / bioactivity in words: loss of bioactivity
CC[C@H](C)[C@H]1C(=O)N[C@@H](C)C(=O)N(C)[C@@H](CC(C)C)C(=O)N[C@@H](Cc2cccc3ccccc23)C(=O)N(C)CCCC[C@H](N(C)C(=O)[C@H](CC(C)C)N(C)C(=O)[C@H](C)N(C)C(=O)[C@H](OC(=O)[C@H](C(C)C)N(C)C)C(C)C)C(=O)N(C)[C@@H](C)C(=O)N1C [10p] (NMe2Val-[dHiv][NMeA][NMeL][NMeLys(Me)][NMeA][NMeI]A[NMeL][1Nal]; lactam 4-C) | 4800 ± 500 nM | –
CC[C@H](C)[C@H]1C(=O)N[C@@H](C)C(=O)N(C)[C@@H](CC(C)C)C(=O)N[C@@H](Cc2ccc3ccccc3c2)C(=O)N(C)CCCC[C@H](N(C)C(=O)[C@H](CC(C)C)N(C)C(=O)[C@H](C)N(C)C(=O)[C@H](OC(=O)[C@H](C(C)C)N(C)C)C(C)C)C(=O)N(C)[C@@H](C)C(=O)N1C [10q] (NMe2Val-[dHiv][NMeA][NMeL][NMeLys(Me)][NMeA][NMeI]A[NMeL][2Nal]; lactam 4-C) | 280 ± 30 nM | –
CC[C@H](C)[C@H]1C(=O)N[C@@H](C)C(=O)N(C)[C@@H](CC(C)C)C(=O)N[C@@H](Cc2ccc(OC)cc2)C(=O)N(C)[C@H](C)C(=O)O[C@H](C)[C@H](N(C)C(=O)[C@H](CC(C)C)N(C)C(=O)[C@H](COC)N(C)C(=O)[C@H](OC(=O)[C@H](C(C)C)N(C)C)C(C)C)C(=O)N(C)[C@@H](COC)C(=O)N1C [coibamide A] (NMe2Val-[dHiv][NMeS](Me)[NMeL][NMeT][NMeS](Me)[NMeI]A[NMeL]Y(Me)[dNMeA]; ester 4-C) | – | IC50 [2]: 1.4 ± 0.4 nM
CC[C@H](C)[C@H]1C(=O)N[C@@H](C)C(=O)N(C)[C@@H](CC(C)C)C(=O)N[C@@H](Cc2ccc(-c3ccccc3)cc2)C(=O)N(C)[C@H](C)C(=O)O[C@H](C)[C@H](N(C)C(=O)[C@H](CC(C)C)N(C)C(=O)[C@H](COC)N(C)C(=O)[C@H](OC(=O)[C@H](C(C)C)N(C)C)C(C)C)C(=O)N(C)[C@@H](COC)C(=O)N1C [compound 11, [Bph^10]-CbA] (NMe2Val-[dHiv][NMeS](Me)[NMeL][NMeT][NMeS](Me)[NMeI]A[NMeL][Bip][dNMeA]; ester 4-C) | – | fold more potent cytotoxicity than 1 (coibamide A): 12 fold
CC[C@H](C)[C@H]1C(=O)N[C@@H](C)C(=O)N(C)[C@@H](CC(C)C)C(=O)N[C@@H](Cc2ccc(-c3ccccc3)cc2)C(=O)N(C)[C@H](C)C(=O)O[C@H](C)[C@H](N(C)C(=O)[C@H](CC(C)C)N(C)C(=O)[C@H](C)N(C)C(=O)[C@H](OC(=O)[C@H](C(C)C)N(C)C)C(C)C)C(=O)N(C)[C@@H](C)C(=O)N1C [compound 12, [MeAla^3, MeAla^6, Bph^10]-CbA] (NMe2Val-[dHiv][NMeA][NMeL][NMeT][NMeA][NMeI]A[NMeL][Bip][dNMeA]; ester 4-C) | – | fold more potent cytotoxicity than 1 (coibamide A): 5.6 fold; IC50 [2]: 0.25 nM
